Values of other authors, collected in patent US5891889A, “Inhibitors of farnesyl-protein transferase” (Merck & Co., Inc., priority 1997, dated 1999).

System: farnesyl-protein transferase
Settings: via inhibition of HMG-CoA reductase; literature

SMILES | Indirect inhibition of farnesyl-protein transferase in vivo
CC[C@H](C)C(=O)O[C@H]1CCC=C2C=C[C@H](C)[C@H](CC[C@@H]3C[C@@H](O)CC(=O)O3)[C@H]21 [compactin] | Indirect inhibition of farnesyl-protein transferase in vivo has been demonstrated
CC[C@H](C)C(=O)O[C@H]1C[C@@H](C)C=C2C=C[C@H](C)[C@H](CC[C@@H]3C[C@@H](O)CC(=O)O3)[C@H]21 [lovastatin] | Indirect inhibition of farnesyl-protein transferase in vivo has been demonstrated
